According to patent US10300070B2, “Metabolically-activated drug conjugates to overcome resistance in cancer therapy” (The Brigham and Women's Hospital, Inc., priority 2014, dated 2019):

How the values were obtained:
MDA-MB-231 parent or DTC [1] = test: Cell viability (MTS) and trypan blue exclusion of parent or DTC treated with doxorubicin; assay type: cell-based; settings: co-incubated with dox, 48 h
Protocol: (§1) MDA-MB-231 (ATCC), MDA-MB-468 and 4T-1 mammary carcinoma cells (ATCC) were cultured in DMEM containing 10% Fetal Bovine Serum (FBS) at 37 C and 5% CO2. DU145 and DU145-TxR were provided by A. Mizokami^63 and cultured in DMEM containing 10% FBS, resistant line included 100 nM paclitaxel in the culture media. During treatments with chemotherapeutics, cells were grown to semi-confluence and treated with indicated concentrations of chemotherapy in serum-containing medium for indicated time points. When small molecule inhibitors were included in treatments, they were added simultaneously with chemotherapy. For siRNA gene knockdown, cells were transfected with silencer-select siRNA plasmids (Ambion, Invitrogen, Grand Island, N.Y.) pan-CD44(1) (s2682) panCD44(2) (s2681), siHIF1A (s6539) using lipofectamine 2000 (Invitrogen, Carlsbad Calif.) following manufacturer protocol and cultured for 72 hours prior to treatment. Scrambled siRNA was used as a control. For chemotherapy treatment experiments: Cancer cells were plated at a density of 0.5-1×10^5 cells/ml and allowed to adhere for 24-48 hr. When cells reached ˜70% confluency they were treated with cytotoxics at indicated concentrations for 24-48 hours and utilized for subsequent assays. For experiments in which a shorter incubation was used (i.e. 15 min-4 hours) fresh media was added 24 hours prior to addition of chemotherapy suspended to stock concentration in PBS. For generation of DTC: Cells were treated for 48 hours with chemotherapy. Following washes with PBS, adherent cells were trypsinized and re-plated at a density of 1.5-2×10^5 cells/ml and cultured in serum-containing medium. After 24 hours incubation, floating cells were removed and remaining cells were washed with 1× PBS and considered as chemotherapy-tolerant cells. A population of drug naïve parent cells were always cultured alongside DTC and fresh media was added at every interval that experimental population (DTC) received fresh media.
Following drug incubation, cells were washed and suspended in phenol red-free RPMI or DMEM and subsequently treated with MTS reagent using manufacturer protocol (Promega, Madison, Wis.). Trypan blue exclusion was used to validate experiments and evaluate % of dead cells performed by bright field microscopy.

[2] = system: explant tumor tissue from taxane-refractory breast cancer patients; test: Human refractory breast cancer explant model, glucose uptake; assay type: cell-based; settings: chemotherapy in the presence of hexokinase inhibition, 72 h
Protocol: Anonymous human breast cancer tissues (N=7) from patients refractory to taxane-containing regimens and varying stages of disease were obtained from Mitra Biotech collected under IRB approval from HCG Bangalore Institute of Oncology with due consent. Fresh tumor tissues were collected from breast cancer patients immediately after surgical resection at HCG cancer hospital, Bangalore, India. The tumor samples were transported to the laboratory at 4° C., in appropriate transport buffer within 60 minutes post-resection, for ex-vivo studies and molecular and pathological evaluation. Tissues were cut into thin sections and cultured in 96 well plate using optimized conditions[BISWANATH REF]. Tumors were treated with a taxane, or doxorubicin at Cmax for 72 h. DMSO was used as a vehicle control. After treatment, tumor cell viability was measured. Immunohistochemistry (IHC) was performed as described in methods. Glucose uptake was evaluated 72 h post culture.
Glucose uptake assay was carried 72 hours post culture. Two micro liter of culture supernatant was added to 200 μl of Glucose reagent (Liquixx Glucose Reagent, Erbaa). All readings along with glucose standard (100 mg/dL) were run in triplicate. The plate was incubated at room temperature for 5 minutes on a plate shaker at medium speed and the absorbance was measured at 505 nm using multimode plate reader (Perkin Elmer).

[3] = system: 4T-1 mouse mammary carcinoma; assay type: in vivo, mice
Protocol: Tumor volumes were assessed by the following formula: (Width×Width×length)/2 and values were utilized to calculate tumor specific growth rate (SGR) by the algorhythm (ln [V2/V1]/[t2−t1)] where V=volume and t=time in days^64.
An in-vivo study was designed creating drug-schedules following successive doses of docetaxel at MTD or vehicle control in distinct groups. […] Finally, in effort to dissect the dosing-response of MADC vs. free drugs, a dose-titration of doxorubicin+PI103 or MADC in sequence with docetaxel was performed.

[4] = 20 mg/kg equivalent, 24 h, heterotopic 4T-1 model
Protocol: (§2) An in-vivo study was designed creating drug-schedules following successive doses of docetaxel at MTD or vehicle control in distinct groups. […] Finally, in effort to dissect the dosing-response of MADC vs. free drugs, a dose-titration of doxorubicin+PI103 or MADC in sequence with docetaxel was performed. […] Finally, a preliminary bio distribution study of the free doxorubicin or conjugate was performed on heterotopically-implanted 4T-1 syngeneic mammary carcninoma model. Mice were treated with 20 mg/kg equivalent of MADC or Doxorubicin or a vehicle control group (N=3 per group). […] Organ lysate was then centrifuged at 15,000 g and supernatant was filtered through a 0.2 mm filter syringe before aliquoted into quadruplicate wells of a 96-well plate. […] Autofluorescence determined from vehicle-treated control groups was subtracted from experimental groups and final fluorescence was determined as % arbitrary fluorescence units (AFU)/mg tissue as % increase from vehicle treated control values.

mice = test: Systemic toxicity in treated 4T-1 tumor-bearing mice (hair and weight loss, spleen, heart caspase-3); assay type: in vivo
Protocol: as §2

ROS (hydrogen peroxide) = settings: 10-20 uM of paclitaxel; cited from earlier work
MDA-MB-231 parent or DTC [5] = test: Glucose uptake (2-NBDG) determined by FACS; assay type: cell-based; settings: MDA-MB-231 DTC incubated with catalase for 6 hours
Protocol: as §1
In vitro detection of glucose uptake was performed using 2-(N-7-Nitrobenz-2-oxa-1,3-diazol-4-yl)Amino)-2-Deoxyglucose (2-NBDG) (Invitrogen, Carlsbad Calif.), dissolved in DMSO to 50 mM. Cells were pre-treated with kinase inhibitors or vehicle for 3 hours in glucose- and phenol red-free media before addition of 50 μM 2-NBDG and subsequently read by FACS ex/em 488/535 nm. ROS was determined by pre-loading cells with CM-DCFDA (1 μM), washed 2 times with PBS and subsequently treated with H2O2 or vehicle; when kinase inhibitors were included in treatment, cells were first incubated with inhibitor for 3 hours prior to CM-DCFDA loading. Fluorescence was then determined by FACS ex/em 488/535 nm. For the following assays, cells were trypsinized and counted by Nexcelom cell counter (Lawrence, Mass.) prior to being subjected to analysis in order to achieve a quantitative value per cell: Reduced glutathione was determined using a colorimetric glutathione recycling system by DTNB following manufacturer protocol (Biovision, Milpitas Calif.). ATP analysis was performed using the ATP colorimetric analysis kit (Biovision) according to manufacturer protocol. Reductive stress was detected using the Enzo nitroreductase hypoxia kit (Enzo Life Sciences, Ann Arbor Mich.) following manufacturer protocol and visualized by fluorescent microscopy; a set of non-docetaxel-treated control cells loaded with fluorescent probe were compared against docetaxel-treated cells to derive a % redox stress increase which was calculated as fluorescence intensity of nitroreductase probe per cell and expressed as increase from vehicle. Protein synthesis was measured by two means 1. L-azidohomoalanine amino acid analog of methionine containing an azide moiety was added to cultured cells (parent or DTC) for 3 hours which is incorporated into proteins during active protein synthesis. […]

DTC = test: Total intracellular reduced glutathione (GSH) in drug tolerant cells; assay type: cell-based; settings: acute (3 hours) exposure; ML-265 10 μM, catalase 2000 U/ml
Protocol: In vitro detection of glucose uptake was performed using 2-(N-7-Nitrobenz-2-oxa-1,3-diazol-4-yl)Amino)-2-Deoxyglucose (2-NBDG) (Invitrogen, Carlsbad Calif.), dissolved in DMSO to 50 mM. Cells were pre-treated with kinase inhibitors or vehicle for 3 hours in glucose- and phenol red-free media before addition of 50 μM 2-NBDG and subsequently read by FACS ex/em 488/535 nm. ROS was determined by pre-loading cells with CM-DCFDA (1 μM), washed 2 times with PBS and subsequently treated with H2O2 or vehicle; when kinase inhibitors were included in treatment, cells were first incubated with inhibitor for 3 hours prior to CM-DCFDA loading. Fluorescence was then determined by FACS ex/em 488/535 nm. For the following assays, cells were trypsinized and counted by Nexcelom cell counter (Lawrence, Mass.) prior to being subjected to analysis in order to achieve a quantitative value per cell: Reduced glutathione was determined using a colorimetric glutathione recycling system by DTNB following manufacturer protocol (Biovision, Milpitas Calif.). […] Protein synthesis was measured by two means 1. […] Fluorescence was detected by FACS as described below. […] GFP protein translation was determined by fluorescent microscopy. […] Individual cells were evaluated for fluorescent intensity of caspase-3 activity (red signal intensity) and green fluorescent protein intensity. […]

## O=C(O)c1nn(Cc2ccc(Cl)cc2Cl)c2ccccc12 [Lonidamine]
MDA-MB-231 parent or DTC [1]; DTC, PI103 5 μM, lonidamine 10 μM, KB-458 and KB-697 10 μM
  response to dox in combination with inhibitor, DTC: exquisitely responsive, overtly driven to cell death by dox in combination
MDA-MB-231 parent or DTC [1]; drug naïve parent cells
  response to dox in combination with inhibitor, parent cells: little synergism or a reversion of synergy
[2]
  glucose uptake of explant tumor tissue: diminished capacity for glucose uptake

## COc1cccc2c1C(=O)c1c(O)c3c(c(O)c1C2=O)C[C@@](O)(C(=O)COC(=O)NCCSSCCNC(=O)Oc1cccc(-c2nc(N4CCOCC4)c4oc5ncccc5c4n2)c1)CC3OC1C[C@@H](C)[C@@H](O)[C@@H](N)C1 (stereo partly drawn) [MADC]
[3]; given after successive doses of docetaxel at MTD
  tumor growth suppression, in sequence with docetaxel: elicited suppression of tumor growth, largely comparable to the combination of free drugs in similar sequence
[3]; given after vehicle control
  tumor growth suppression, in sequence with vehicle: operated poorly to suppress tumor growth
[3]; in sequence with docetaxel, 3 mg/kg
  dose-titration, tumor growth, lower concentration: greater effect than free drug combination
[3]; in sequence with docetaxel, 5 mg/kg and 10 mg/kg
  dose-titration, tumor growth, 5 mg/kg and 10 mg/kg: saturating concentrations
[4]
  biodistribution (organ accumulation by fluorescence): greater concentration of the conjugate in the lung compared to the free drug administration
mice; MADC vs. free drug combination groups
  systemic toxicity (toxic burden): significant reduction of toxic burden
mice; MADC-treated cohorts vs free drug combination
  hair and weight loss and myelosuppression indicated by splenic miniaturization: significantly attenuated
mice; lower concentration (3 mg/kg), in sequence with docetaxel
  splenic miniaturization in dose-titration: negligible
mice; mouse, in vivo
  cardiotoxicity (activated caspase-3, immunoblots of whole heart lysate): lower indication of cardiotoxicity

## CC(=O)O[C@H]1C(=O)[C@@]2(C)[C@H]([C@H](OC(=O)c3ccccc3)[C@]3(O)C[C@H](OC(=O)[C@H](O)[C@@H](NC(=O)c4ccccc4)c4ccccc4)C(C)=C1C3(C)C)[C@]1(OC(C)=O)CO[C@@H]1C[C@@H]2O [paclitaxel]
ROS (hydrogen peroxide)
  increase from basal ROS levels: 3-5 ×

B1: catalase: an endogenous modulator of redox stress (protein, UniProt P04040 2-527, looked up)
Catalase: ADSRDPASDQMQHWKEQRAAQKADVLTTGAGNPVGDKLNVITVGPRGPLLVQDVVFTDEMAHFDRERIPERVVHAKGAGAFGYFEVTHDITKYSKAKVFEHIGKKTPIAVRFSTVAGESGSADTVRDPRGFAVKFYTEDGNWDLVGNNTPIFFIRDPILFPSFIHSQKRNPQTHLKDPDMVWDFWSLRPESLHQVSFLFSDRGIPDGHRHMNGYGSHTFKLVNANGEAVYCKFHYKTDQGIKNLSVEDAARLSQEDPDYGIRDLFNAIATGKYPSWTFYIQVMTFNQAETFPFNPFDLTKVWPHKDYPLIPVGKLVLNRNPVNYFAEVEQIAFDPSNMPPGIEASPDKMLQGRLFAYPDTHRHRLGPNYLHIPVNCPYRARVANYQRDGPMCMQDNQGGAPNYYPNSFGAPEQQPSALEHSIQYSGEVRRFNTANDDNVTQVRAFYVNVLNEEQRKRLCENIAGHLKDAQIFIQKKAVKNFTEVHPDYGSHIQALLDKYNAEKPKNAIHTFVQSGSHLAAREKANL
MDA-MB-231 parent or DTC [5]
  glucose consumption (2NBDG uptake) in DTC: reduced potential for glucose consumption
DTC
  total levels of reduced glutathione (GSH) in DTC: diminished total levels of reduced glutathione in DTC
